Assays:
human KDR = target: T1, human KDR (Homo sapiens, UniProt P35968); assay: Inhibitory activity against KDR phosphorylation by ELISA; format: cell-based; settings: NIH 3T3 cells transfected with human KDR, VEGF 100 ng/ml
T1 construct: expressed in transfected cells; host or cells: NIH 3T3 cells (Sawano A et al., Cell Growth & Differentiation 7, 213-221 (1996))

[1] = test system: activation of MAPK within vascular endothelial cells induced by VEGF stimulation; assay: Inhibitory activity against activation of MAPK within vascular endothelial cells induced by VEGF stimulation; format: cell-based; settings: Endothelial cell; human funicular venous vascular endothelial cells, VEGF 50 ng/ml, phosphorylated MAPK by immunoblotting
Description: Measurement of Inhibitory Activity Against Activation of MAPK Within Vascular Endothelial Cells Induced by VEGF Stimulation
Human funicular venous vascular endothelial cells (purchased from Chronetics) were cultured in an EGM-2 medium (purchased from Chronetics) within an incubator containing 5% carbon dioxide until 50 to 70% confluent, and the culture was inoculated into wells, containing the same medium, in a 96-well flat-bottom plate in an amount of 1.5×10^5 per well. After cultivation at 37° C. overnight, the medium was replaced by an EBM-2 medium containing 0.5% fetal calf serum (purchased from Chronetics), followed by cultivation for 24 hr. A solution of the test compound in dimethyl sulfoxide was added to each well, and the cultivation was continued at 37° C. for additional one hr. A human recombinant vascular endothelial growth factor (hereinafter abbreviated to “VEGF”) was added to a final concentration of 50 ng/ml, and the stimulation of cells was carried out at 37° C. for 8 min. The medium was removed, the cells were washed with phosphate buffered saline (pH 7.4), and 10 μl of a solubilization buffer (Tris buffered saline (pH 7.4) containing 1% Triton X100, 2 mM sodium orthovanadylate, and 1 mM disodium ethylenediaminetetraacetate) was then added thereto. The mixture was shaken at 4° C. for one hr to solubilize the cells. An equal amount of Tris buffered saline containing 1% sodium laurylsulfate was added to and thoroughly mixed with the solution. This solution (2 μl) was adsorbed on a PVDF filter by dot blotting, and this filter was subjected to immunoblotting with anti-tyrosine phosphorylated MAPK antibody (purchased from Daiichi Pure Chemicals).
The level of phosphorylated MAPK was quantitatively determined with a densitometer, and the percentage phosphorylated MAPK in the presence of the test compound was determined by presuming the level of phosphorylated MAPK with the addition of VEGF in the absence of the test compound to be 100% and the level of phosphorylated MAPK in the absence of the test compound and VEGF to be 0%. The test compound concentration (IC50) necessary for inhibiting 50% of the activation of MAPK was calculated based on the percentage of phosphorylated MAPK.

Human glioma cells GL07 = assay: Antitumor effect on human glioma cells (GL07) transplanted into nude mice; format: in vivo; settings: Mus musculus, Glioma cell, 216 h, GL07, oral, 20 mg/kg once a day for 9 days, read-out: TGIR, % (tumor growth inhibition rate)
Summary of the method: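 GL07 xenografts in nude mice, grouped (n=4) at ~100 mm^3 tumor volume. Test compound 20 mg/kg p.o. or i.p. once daily for 9 days; vehicle controls. TGIR = (1−Tx/Cx)×100 from tumor volumes normalized to day-of-start volume = 1.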

T1 sequence (P35968 20-1356): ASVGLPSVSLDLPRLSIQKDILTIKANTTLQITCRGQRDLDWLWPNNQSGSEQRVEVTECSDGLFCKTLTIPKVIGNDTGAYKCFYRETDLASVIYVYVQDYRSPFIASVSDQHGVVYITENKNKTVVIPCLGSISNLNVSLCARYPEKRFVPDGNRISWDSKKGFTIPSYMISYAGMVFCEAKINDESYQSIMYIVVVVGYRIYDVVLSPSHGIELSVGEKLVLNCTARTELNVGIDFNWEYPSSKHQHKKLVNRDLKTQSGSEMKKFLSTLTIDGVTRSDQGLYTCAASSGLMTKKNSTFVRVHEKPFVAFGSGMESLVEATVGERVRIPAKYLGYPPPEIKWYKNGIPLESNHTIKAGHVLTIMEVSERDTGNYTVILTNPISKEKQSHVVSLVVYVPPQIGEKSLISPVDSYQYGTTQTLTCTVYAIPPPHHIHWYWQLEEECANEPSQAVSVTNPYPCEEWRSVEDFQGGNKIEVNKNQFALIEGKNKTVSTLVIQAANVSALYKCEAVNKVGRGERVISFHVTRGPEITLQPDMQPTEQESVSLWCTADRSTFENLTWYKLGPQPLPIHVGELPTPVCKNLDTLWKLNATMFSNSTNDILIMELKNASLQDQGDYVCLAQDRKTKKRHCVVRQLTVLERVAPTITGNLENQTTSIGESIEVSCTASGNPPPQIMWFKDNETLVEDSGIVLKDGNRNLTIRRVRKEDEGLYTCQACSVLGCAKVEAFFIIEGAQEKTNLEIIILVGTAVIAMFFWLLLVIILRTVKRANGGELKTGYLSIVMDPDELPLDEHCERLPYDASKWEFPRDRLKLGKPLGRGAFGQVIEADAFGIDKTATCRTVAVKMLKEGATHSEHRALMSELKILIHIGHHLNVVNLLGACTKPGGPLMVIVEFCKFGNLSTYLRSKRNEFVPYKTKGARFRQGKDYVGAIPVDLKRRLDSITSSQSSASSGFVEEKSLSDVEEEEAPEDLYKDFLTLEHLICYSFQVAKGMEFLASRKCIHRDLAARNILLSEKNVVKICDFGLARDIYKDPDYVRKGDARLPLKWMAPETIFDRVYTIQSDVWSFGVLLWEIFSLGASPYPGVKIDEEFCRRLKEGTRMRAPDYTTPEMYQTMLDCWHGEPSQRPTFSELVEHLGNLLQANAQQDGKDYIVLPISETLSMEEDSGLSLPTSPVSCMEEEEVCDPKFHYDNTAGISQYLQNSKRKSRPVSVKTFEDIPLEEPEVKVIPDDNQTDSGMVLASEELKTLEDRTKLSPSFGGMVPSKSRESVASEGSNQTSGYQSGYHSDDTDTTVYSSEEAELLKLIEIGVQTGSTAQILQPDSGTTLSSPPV

Row | IC50 (human KDR) [nM] | IC50 [1] [nM] | SMILES | inhibition in vivo at 20 mg/kg (Human glioma cells GL07) [%]
1 | 25 | 8.8 | COc1cc2ncnc(Oc3ccc(NC(=O)Nc4ccc(F)cc4F)cc3C)c2cc1OC [Example 99, N-(2,4-Difluorophenyl)-N′-{4-[(6,7-dimethoxy-4-quinazolinyl)oxy]-3-methylpenyl}urea] | 33
2 | 3.9 | 5.3 | COc1cc2ncnc(Oc3ccc(NC(=O)Nc4ccc(F)cc4F)c(C)c3)c2cc1OC [Example 104, N-(2,4-Difluorophenyl)-N′-{4-[(6,7-dimethoxy-4-quinazolinyl)oxy]-2-methylphenyl}urea] | 22
3 | 24 | 45 | CCCCNC(=O)Nc1ccc(Oc2ncnc3cc(OC)c(OC)cc23)cc1F [Example 89, N-Butyl-N′-{4-[(6,7-dimethoxy-4-quinazolinyl)oxy]-2-fluorophenyl}urea] | 40
4 | 2.3 | 1.8 | COc1cc2ncnc(Oc3ccc(NC(=O)Nc4ccc(F)cc4F)c(F)c3)c2cc1OC [Example 94, N-(2,4-Difluorophenyl)-N′-{4-[(6,7-dimethoxy-4-quinazolinyl)oxy]-2-fluorophenyl}urea] | 29
5 | 15 | 21 | CCCCCNC(=O)Nc1ccc(Oc2ncnc3cc(OC)c(OC)cc23)cc1 [Example 66, N-{4-[(6,7-Dimethoxy-4-quinazolinyl)oxy]-phenyl}-N′-pentylurea] | 26
6 | 24 | 45 | C=CCNC(=O)Nc1ccc(Oc2ncnc3cc(OC)c(OC)cc23)cc1 [Example 68, N-Allyl-N′-{4-[(6,7-Dimethoxy-4-quinazolinyl)oxy]phenyl}urea] | 57
7 | 11 | 10.2 | CCCNC(=O)Nc1ccc(Oc2ncnc3cc(OC)c(OC)cc23)cc1[N+](=O)[O-] [Example 107, N-{4-[(6,7-Dimethoxy-4-quinazolinyl)oxy]-2-nitrophenyl}-N′-propylurea] | 49
8 | 32 | 6.8 | COc1cc2ncnc(Oc3ccc(NC(=O)NCc4ccc(F)cc4F)cc3)c2cc1OC [Example 70, N-(2,4-Difluorobenzyl)-N′-{4-[(6,7-dimethoxy-4-quinazolinyl)oxy]phenyl}urea] | –
9 | 78 | 53 | CCCCNC(=O)Nc1ccc(Oc2ncnc3cc(OC)c(OC)cc23)cc1C [Example 103, N-Butyl-N′-{4-[(6,7-dimethoxy-4-quinazolinyl)oxy]-2-methylphenyl}urea] | 23
10 | 110 | 58 | COc1cc2ncnc(Oc3ccc(NC(=O)Nc4ccc(Cl)cn4)c(Cl)c3)c2cc1OC [Example 87, N-{2-Chloro-4-[(6,7-dimethoxy-4-quinazolinyl)oxy]phenyl}-N′-(5-chloro-2-pyridyl)urea] | –
11 | 150 | 42 | CCCNC(=O)Nc1ccc(Oc2ncnc3cc(OC)c(OC)cc23)cc1 [Example 64, N-{4-[(6,7-Dimethoxy-4-quinazolinyl)oxy]-phenyl}-N′-propylurea] | 37
12 | 330 | 450 | CCCCNC(=O)Nc1ccc(Oc2ncnc3cc(OC)c(OC)cc23)c(C)c1 [Example 98, N-Butyl-N′-{4-[(6,7-dimethoxy-4-quinazolinyl)oxy]-3-methylphenyl}urea] | 38
13 | 150 | 70 | CCNC(=O)Nc1ccc(Oc2ncnc3cc(OC)c(OC)cc23)cc1 [Example 63, N-{4-[(6,7-Dimethoxy-4-quinazolinyl)oxy]-phenyl}-N′-ethylurea] | –
14 | 2.7 | 13 | C=CCNC(=O)Nc1ccc(Oc2ncnc3cc(OC)c(OC)cc23)cc1Cl [Example 80, N-Allyl-N′-{2-chloro-4-[(6,7-dimethoxy-4-quinazolinyl)oxy]phenyl}urea] | 52
15 | 350 | 750 | COc1cc2ncnc(Oc3ccc(NC(=O)NCc4ccccn4)cc3)c2cc1OC [Example 71, N-{4-[(6,7-Dimethoxy-4-quinazolinyl)oxy]-phenyl}-N′-(2-pyridylmethyl)urea] | 67
16 | 105 | 150 | CCCNC(=O)Nc1ccc(Oc2ncnc3cc(OC)c(OC)cc23)cc1C [Example 102, N-{4-[(6,7-Dimethoxy-4-quinazolinyl)oxy]-2-methylphenyl}-N′-propylurea] | 24
17 | 64 | 67 | C#CCNC(=O)Nc1ccc(Oc2ncnc3cc(OC)c(OC)cc23)cc1 [Example 69, N-{4-[(6,7-Dimethoxy-4-quinazolinyl)-oxy]phenyl}-N′-(2-propynyl)urea] | 26
18 | 490 | 518 | CCCNC(=O)Nc1ccc(Oc2ncnc3cc(OC)c(OC)cc23)c(C)c1 [Example 97, N-{4-[(6,7-Dimethoxy-4-quinazolinyl)oxy]-3′-methylphenyl}-N′-propylurea] | 48
19 | 1.5 | 0.6 | COc1ccccc1NC(=O)Nc1ccc(Oc2ncnc3cc(OC)c(OC)cc23)cc1Cl [Example 86, N-{2-Chloro-4-[(6,7-dimethoxy-4-quinazolinyl)oxy]phenyl}-N′-(2-methoxyphenyl)urea] | –
20 | 2 | 2.3 | COc1cc2ncnc(Oc3ccc(NC(=O)Nc4ccc(F)cc4)c(C)c3)c2cc1OC [Example 105, N-{4-[(6,7-Dimethoxy-4-quinazolinyl)oxy]-2-methylphenyl}-N′-(4-fluorophenyl)urea] | 20
21 | 8.4 | 3.8 | COc1cc2ncnc(Oc3ccc(NC(=O)NCc4ccc(F)cc4F)c(Cl)c3)c2cc1OC [Example 82, N-{2-Chloro-4-[(6,7-dimethoxy-4-quinazolinyl)oxy]phenyl}-N′-(2,4-difluorobenzyl)urea] | 27
22 | 1 | < 2 | COc1cc2ncnc(Oc3ccc(NC(=O)Nc4ccc(F)cc4)cc3)c2cc1OC [Example 73, N-{4-[(6,7-Dimethoxy-4-quinazolinyl)oxy]-phenyl}-N′-(4-fluorophenyl)urea] | 34
23 | 18 | 30 | CCC(C)NC(=O)Nc1ccc(Oc2ncnc3cc(OC)c(OC)cc23)cc1Cl (stereo not drawn) [Example 79, N-(sec-Butyl)-N′-{2-chloro-4-[(6,7-dimethoxy-4-quinazolinyl)oxy]phenyl}urea] | 28
24 | 11 | 6 | COc1cc2ncnc(Oc3ccc(NC(=O)Nc4ccccc4C)cc3)c2cc1OC [Example 74, N-{4-[(6,7-Dimethoxy-4-quinazolinyl)oxy]-phenyl}-N′-(2-methylphenyl)urea] | 28
25 | 0.4 | < 1 | COc1ccccc1NC(=O)Nc1ccc(Oc2ncnc3cc(OC)c(OC)cc23)cc1F [Example 96, N-{4-[(6,7-Dimethoxy-4-quinazolinyl)oxy]-2-fluorophenyl}-N′-(2-methoxyphenyl)urea] | –
26 | 1.4 | 1.2 | COc1ccccc1NC(=O)Nc1ccc(Oc2ncnc3cc(OC)c(OC)cc23)cc1 [Example 75, N-{4-[(6,7-Dimethoxy-4-quinazolinyl)oxy]-phenyl}-N′-(2-methoxyphenyl)urea] | –
